Experimental data reported in the CheMixHub viscosity set.
± gives the uncertainty stated by the source.

Assay: xn = mol fraction of the nth substance listed

O=P(O)(O)O + O
Conditions | viscosity [mPa·s]
293.15 K, 101 kPa, x1 = 0.404 | 27.7 ± 1.8
293.15 K, 101 kPa, x1 = 0.441 | 32.01 ± 2.1
293.15 K, 101 kPa, x1 = 0.504 | 46.83 ± 3
293.15 K, 101 kPa, x1 = 0.537 | 54.26 ± 1.3
293.15 K, 101 kPa, x1 = 0.574 | 64.47 ± 4.6
293.15 K, 101 kPa, x1 = 0.603 | 69.15 ± 6.2
293.15 K, 101 kPa, x1 = 0.616 | 75.28 ± 8.5
293.15 K, 101 kPa, x1 = 0.626 | 79.2 ± 10
298 K, 101.33 kPa, x1 = 0.0038 | 0.939 ± 0.1
298 K, 101.33 kPa, x1 = 0.007 | 0.979 ± 0.1
298 K, 101.33 kPa, x1 = 0.014 | 1.075 ± 0.1
298 K, 101.33 kPa, x1 = 0.0215 | 1.191 ± 0.1
298 K, 101.33 kPa, x1 = 0.029 | 1.307 ± 0.1
298 K, 101.33 kPa, x1 = 0.0376 | 1.457 ± 0.11
298 K, 101.33 kPa, x1 = 0.0462 | 1.62 ± 0.11
298 K, 101.33 kPa, x1 = 0.0537 | 1.786 ± 0.11
298 K, 101.33 kPa, x1 = 0.0604 | 1.955 ± 0.11
298 K, 101.33 kPa, x1 = 0.0714 | 2.204 ± 0.11
298 K, 101.33 kPa, x1 = 0.0832 | 2.521 ± 0.11
298 K, 101.33 kPa, x1 = 0.0925 | 2.842 ± 0.11
298 K, 101.33 kPa, x1 = 0.1 | 3.033 ± 0.11
298 K, 101.33 kPa, x1 = 0.106 | 3.198 ± 0.11
298 K, 101.33 kPa, x1 = 0.111 | 3.378 ± 0.11
298 K, 101.33 kPa, x1 = 0.151 | 4.902 ± 0.12
298 K, 101.33 kPa, x1 = 0.2128 | 7.936 ± 0.14
298 K, 101.33 kPa, x1 = 0.2654 | 11.32 ± 0.15
298 K, 101.33 kPa, x1 = 0.311 | 14.88 ± 0.17
298 K, 101.33 kPa, x1 = 0.3511 | 18.8 ± 0.19
298 K, 101.33 kPa, x1 = 0.3871 | 22.93 ± 0.21
298 K, 101.33 kPa, x1 = 0.422 | 27.24 ± 0.23
298 K, 101.33 kPa, x1 = 0.4737 | 35.19 ± 0.26
298 K, 101.33 kPa, x1 = 0.5388 | 46.3 ± 0.3
298 K, 101.33 kPa, x1 = 0.6043 | 59.76 ± 0.32
298.15 K, 100 kPa, x2 = 0.333 | 70.64 ± 2.9
298.15 K, 101 kPa, x1 = 0.0018 | 0.9162 ± 0.092
298.15 K, 101 kPa, x1 = 0.0054 | 0.9543 ± 0.096
298.15 K, 101 kPa, x1 = 0.0089 | 1 ± 0.1
298.15 K, 101 kPa, x1 = 0.012 | 1.054 ± 0.11
298.15 K, 101 kPa, x1 = 0.016 | 1.089 ± 0.11
298.15 K, 101 kPa, x1 = 0.404 | 24.33 ± 1.6
298.15 K, 101 kPa, x1 = 0.441 | 27.61 ± 1.8
298.15 K, 101 kPa, x1 = 0.504 | 37.59 ± 2.5
298.15 K, 101 kPa, x1 = 0.537 | 43.17 ± 2.8
298.15 K, 101 kPa, x1 = 0.574 | 50.35 ± 0.3
298.15 K, 101 kPa, x1 = 0.603 | 54.12 ± 1.2
298.15 K, 101 kPa, x1 = 0.616 | 60.3 ± 3.2
298.15 K, 101 kPa, x1 = 0.626 | 64.75 ± 4.6
303.15 K, 100 kPa, x2 = 0.333 | 55.6 ± 2.3
303.15 K, 101 kPa, x1 = 0.0018 | 0.8163 ± 0.082
303.15 K, 101 kPa, x1 = 0.0054 | 0.8526 ± 0.086
303.15 K, 101 kPa, x1 = 0.0089 | 0.8928 ± 0.089
303.15 K, 101 kPa, x1 = 0.012 | 0.9281 ± 0.093
303.15 K, 101 kPa, x1 = 0.016 | 0.9679 ± 0.097
303.15 K, 101 kPa, x1 = 0.404 | 20.3 ± 1.4
303.15 K, 101 kPa, x1 = 0.441 | 23.66 ± 1.6
303.15 K, 101 kPa, x1 = 0.504 | 30.35 ± 2
303.15 K, 101 kPa, x1 = 0.537 | 34.61 ± 2.3
303.15 K, 101 kPa, x1 = 0.574 | 38.68 ± 2.5
303.15 K, 101 kPa, x1 = 0.603 | 43.03 ± 2.8
303.15 K, 101 kPa, x1 = 0.616 | 46.81 ± 3
303.15 K, 101 kPa, x1 = 0.626 | 52.57 ± 0.79
308.15 K, 100 kPa, x2 = 0.333 | 46.73 ± 1.9
308.15 K, 101 kPa, x1 = 0.0018 | 0.7331 ± 0.073
308.15 K, 101 kPa, x1 = 0.0054 | 0.763 ± 0.076
308.15 K, 101 kPa, x1 = 0.0089 | 0.794 ± 0.08
308.15 K, 101 kPa, x1 = 0.012 | 0.84 ± 0.084
308.15 K, 101 kPa, x1 = 0.016 | 0.8774 ± 0.088
308.15 K, 101 kPa, x1 = 0.404 | 17.53 ± 1.2
308.15 K, 101 kPa, x1 = 0.441 | 19.85 ± 1.4
308.15 K, 101 kPa, x1 = 0.504 | 24.19 ± 1.6
308.15 K, 101 kPa, x1 = 0.537 | 27.64 ± 1.8
308.15 K, 101 kPa, x1 = 0.574 | 31.89 ± 2.1
308.15 K, 101 kPa, x1 = 0.603 | 33.9 ± 2.2
308.15 K, 101 kPa, x1 = 0.616 | 37.64 ± 2.5
308.15 K, 101 kPa, x1 = 0.626 | 41.08 ± 2.7
313.15 K, 100 kPa, x2 = 0.333 | 39.76 ± 1.6
313.15 K, 101 kPa, x1 = 0.404 | 14.63 ± 1
313.15 K, 101 kPa, x1 = 0.441 | 17.7 ± 1.2
313.15 K, 101 kPa, x1 = 0.504 | 21.48 ± 1.5
313.15 K, 101 kPa, x1 = 0.537 | 22.64 ± 1.5
313.15 K, 101 kPa, x1 = 0.574 | 25.3 ± 1.7
313.15 K, 101 kPa, x1 = 0.603 | 27.25 ± 1.8
313.15 K, 101 kPa, x1 = 0.616 | 29.46 ± 2
313.15 K, 101 kPa, x1 = 0.626 | 32.1 ± 2.1
318.15 K, 100 kPa, x2 = 0.333 | 32.46 ± 1.3
323.15 K, 100 kPa, x2 = 0.333 | 27.57 ± 1.1

CCCCCCCC/C=C\CCCCCCCC(=O)OCC + CCCO
Conditions | viscosity [mPa·s]
303.15 K, 101 kPa, x2 = 0.2 | 4.435 ± 0.042

CCCCCCCC/C=C\CCCCCCCC(=O)OCC + CCCCCCCCCCCCCCCC
viscosity [mPa·s], 100 kPa
Conditions | x1 = 0.1 | x1 = 0.2 | x1 = 0.3 | x1 = 0.4 | x1 = 0.5 | x1 = 0.6 | x1 = 0.7 | x1 = 0.8 | x1 = 0.9
293.15 K | 3.595 ± 0.046 | 3.805 ± 0.053 | 4.056 ± 0.062 | 4.336 ± 0.073 | 4.643 ± 0.085 | 4.964 ± 0.1 | 5.309 ± 0.12 | 5.671 ± 0.13 | 6.032 ± 0.15
298.15 K | 3.195 ± 0.041 | 3.382 ± 0.047 | 3.599 ± 0.055 | 3.849 ± 0.065 | 4.12 ± 0.076 | 4.405 ± 0.088 | 4.704 ± 0.1 | 5.019 ± 0.12 | 5.335 ± 0.14
303.15 K | 2.852 ± 0.037 | 3.009 ± 0.042 | 3.2 ± 0.049 | 3.422 ± 0.058 | 3.657 ± 0.067 | 3.906 ± 0.078 | 4.163 ± 0.091 | 4.434 ± 0.1 | 4.708 ± 0.12
308.15 K | 2.56 ± 0.033 | 2.705 ± 0.038 | 2.873 ± 0.044 | 3.065 ± 0.052 | 3.269 ± 0.06 | 3.485 ± 0.07 | 3.71 ± 0.081 | 3.946 ± 0.093 | 4.185 ± 0.11
313.15 K | 2.314 ± 0.03 | 2.443 ± 0.035 | 2.589 ± 0.04 | 2.755 ± 0.047 | 2.928 ± 0.054 | 3.113 ± 0.063 | 3.306 ± 0.072 | 3.508 ± 0.083 | 3.715 ± 0.094
318.15 K | 2.1 ± 0.027 | 2.217 ± 0.031 | 2.351 ± 0.036 | 2.504 ± 0.042 | 2.662 ± 0.049 | 2.83 ± 0.057 | 3.004 ± 0.066 | 3.186 ± 0.075 | 3.372 ± 0.086
323.15 K | 1.917 ± 0.025 | 2.023 ± 0.029 | 2.144 ± 0.033 | 2.28 ± 0.039 | 2.421 ± 0.045 | 2.571 ± 0.052 | 2.723 ± 0.06 | 2.887 ± 0.068 | 3.053 ± 0.078

N[C@@H](Cc1c[nH]c2ccccc12)C(=O)O + O
303 K, 100 kPa
Conditions | viscosity [mPa·s]
x1 = 0.087 | 0.934 ± 0.02
x1 = 0.0954 | 1 ± 0.021
x1 = 0.0971 | 1.018 ± 0.022
x1 = 0.0979 | 1.055 ± 0.023
x1 = 0.0983 | 1.077 ± 0.024
x1 = 0.0985 | 1.101 ± 0.026

CC(=O)OCCC(C)C + CCCCOC(C)=O
viscosity [mPa·s], 101 kPa
Conditions | x1 = 0.2 | x1 = 0.4 | x1 = 0.6 | x1 = 0.8
293.15 K | 0.75 ± 0.007 | 0.776 ± 0.008 | 0.802 ± 0.008 | 0.831 ± 0.008
313.15 K | 0.575 ± 0.006 | 0.592 ± 0.006 | 0.611 ± 0.006 | 0.629 ± 0.006
